Like-named read-outs stand apart in the source and are kept apart here.
How the values were obtained:
[1] = target: T1, PP2A (Homo sapiens, UniProt P67775); assay: Ser/Thr phosphatase assay (malachite green), recombinant PP2A; type: biochemical
T1 construct: purchased Cayman Chem 10011237
Experimental: (§1) Ser/Thr phosphatase assay kit (cat. no. 17-127, Millipore, Temecula, CA, USA) was used to detect PP2A activity by dephosphorylation of the phosphopeptide R-K-pT-I-R-R using malachite green detection. Likewise, a protein tyrosine phosphatase assay kit (cat. no. 17-125, Millipore, Burlington, MA, USA) was used to detect PTP1B activity by dephosphorylation of the phosphopeptide R-R-L-I-E-D-A-E-pY-A-A-R-G using malachite green detection. Experimental procedures were performed according to the manufacturer’s protocols. Recombinant PP2A (cat. no. 10011237, Cayman Chem, Ann Arbor, MI, USA) and PTP1B (cat. no. 10010896, Cayman Chem, Ann Arbor, MI, USA) were used. Dephosphorylation reactions were performed at room temperature for 30 min in the presence of serially diluted okadaic acid, PTP1Bi, cinnamaldehyde, or curcumin. The reactions were terminated by the addition of […] malachite green solution and allowed color development to proceed for 15 min at room temperature. Phosphatase activities were measured using absorbance at 650 nm in a microtiter plater reader (Synergy 2, BioTek, Winooski, VT, USA).

[2] = system: Akt2; assay: cIEF immunoassay of Akt2 and p-Akt2 (S474) in primary human subcutaneous preadipocytes; type: cell-based; conditions: for change of Akt2 cIEF electropherogram versus untreated control / p-Akt2 (S474) induction / change of Akt2 cIEF electropherogram versus insulin alone / increase of p-Akt2 (S474) compared to insulin treatment alone: 30 min; for change of Akt2 cIEF electropherogram versus untreated control: insulin 100 nM; for change of Akt2 cIEF electropherogram versus untreated control / p-Akt2 (S474) induction / increase of p-Akt2 (S474) compared to insulin treatment alone: cinnamaldehyde 40 µM, curcumin 20 µM; for change of Akt2 cIEF electropherogram versus untreated control / p-Akt2 (S474) induction: okadaic acid 5 nM, PTP1Bi 4 µM; for p-Akt2 (S474) induction: treatment without added insulin (insulin itself 100 nM); for change of Akt2 cIEF electropherogram versus insulin alone / increase of p-Akt2 (S474) compared to insulin treatment alone: together with insulin 100 nM
Experimental: (§2) Primary human subcutaneous preadipocytes were obtained from Zen-Bio (Cat. No. SP-F-1, Lot #L031219A, Durham, NC, USA) and maintained at 37 °C and 5% CO2 in growth medium comprising Minimum Essential Medium α (cat. no. 12571063, Thermo Fisher Scientific, Waltham, MA, USA) supplemented with 10% fetal bovine serum, 100 units/mL penicillin, and 100 µg/mL streptomycin. […] The donor was undergoing elective surgery and signed an Institutional Review Board validated donor consent form that specifically lists both the intended uses for non-clinical research and confirms the procedures for processing the samples are Standard Operating Procedure managed Good Laboratory Practices protocols in compliance with ethical regulations. All samples were collected and processed in the United States.
(§3) Existing growth media of primary human subcutaneous preadipocytes were replaced with new growth media premixed with treatment compounds and incubated at 37 °C and 5% CO2 for 30 min prior to the collection of total cell extracts. The final concentrations of treatment compounds were as follows: insulin (100 nM, Humulin R, Eli Lilly, Indianapolis, IN, USA), cinnamaldehyde (40 µM, cat. no. W228613, Sigma Aldrich, St. Louis, MO, USA), curcumin (20 µM, cat. no. C7727, Sigma Aldrich, St. Louis, MO, USA), okadaic acid (5 nM, cat. no. ab120375, Cambridge, MA, USA), and PTP1Bi (4 µM, cat. no. 15782, Cayman Chem, Ann Arbor, MI, USA). The concentrations of treatment compounds were selected based on their ability to induce maximal effects on the PTM profile of Akt2, which were experimentally determined.
(§4) Approximately one million cells were incubated on ice for 10 min with 60 µL of lysis buffer (cat. no. 040-764, ProteinSimple, Santa Clara, CA, USA), sonicated 4 times for 5 s each, mixed by rotation for 2 h at 4 °C, and centrifuged at 12,000 rpm in an Eppendorf 5430R microfuge for 20 min at 4 °C. The supernatant was collected as the cell lysate. The total protein concentration in the cell lysate was determined with a Bradford protein assay and adjusted to a final concentration of 0.3 µg/µL with separation gradients (cat. no. Premix G2, pH 5–8, ProteinSimple, Santa Clara, CA, USA) for charge-based cIEF immunoassays.
(§5) Cell lysates in separation gradients were loaded into 384-well assay plates (cat. no. 040-663, ProteinSimple, Santa Clara, CA, USA), which were preloaded with primary and secondary antibodies and chemiluminescent substrates. Charge-based protein separation and detection in individual capillaries were performed using the default protocols of the NanoPro 1000 system (ProteinSimple, Santa Clara, CA, USA). HSP70 was used as the loading control. All cIEF immunoassays were performed in triplicate for each protein, and triplicate experiments were performed for each treatment condition, producing nine repeated measurements per protein analyte.
(§6) Protein abundance was quantified using the Compass software from ProteinSimple (Santa Clara, CA, USA) and normalized with that of HSP70 for cIEF immunoassays or β-actin for capillary Western assays. HSP70 and β-actin served as loading controls.

[3] = system: Akt1; assay: cIEF immunoassay of Akt1 in primary human subcutaneous preadipocytes; type: cell-based; conditions: for effect on Akt1 cIEF electropherogram: 30 min; for effect on insulin-stimulated phosphorylation of Akt1: with insulin, cIEF of p-Akt1 (S473) and standard Western
Experimental: as §2, §3, §4, §5, §6

[4] = system: ERK1/2; assay: cIEF immunoassay of ERK1/2 phosphorylation; type: cell-based, human; conditions: following treatment
Experimental: as §3
as §5, with “All cIEF immunoassays were performed in triplicate for each protein, and triplicate experiments were performed for each treatment condition, producing nine repeated measurements per protein analyte.” left out

[5] = system: pan-Akt; assay: cIEF immunoassay of pan-Akt phosphoisoforms in primary human subcutaneous preadipocytes; type: cell-based; conditions: 30 min, versus untreated control
Experimental: as §2, §3, §4, §5, §6

[6] = system: Akt3; assay: cIEF immunoassay of Akt3 in primary human subcutaneous preadipocytes; type: cell-based; conditions: for effect on Akt3 cIEF electropherogram: 30 min; for effect on insulin-stimulated phosphorylation of Akt3: with insulin
Experimental: as §2, §3, §4, §5, §6

[7] = target: T2, PTP1B (Homo sapiens, UniProt P18031); assay: Protein tyrosine phosphatase assay (malachite green), recombinant PTP1B; type: biochemical; conditions: 30 min, room temperature, read-out: IC50, PTP1B inhibition
T2 construct: purchased Cayman Chem 10010896
T2 sequence (P18031 1-321 limits assumed): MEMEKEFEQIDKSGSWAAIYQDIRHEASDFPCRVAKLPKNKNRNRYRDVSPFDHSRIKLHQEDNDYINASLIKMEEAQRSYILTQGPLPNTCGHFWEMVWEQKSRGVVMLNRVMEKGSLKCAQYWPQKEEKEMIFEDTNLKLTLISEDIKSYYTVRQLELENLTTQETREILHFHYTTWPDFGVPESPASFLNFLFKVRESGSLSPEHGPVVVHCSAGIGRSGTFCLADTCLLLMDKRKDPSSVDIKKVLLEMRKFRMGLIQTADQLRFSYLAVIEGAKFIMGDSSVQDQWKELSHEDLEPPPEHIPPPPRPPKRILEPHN
Experimental: as §1

[8] = system: pan-Akt; assay: Capillary Western immunoassay of p-Akt in primary human subcutaneous preadipocytes; type: cell-based; conditions: insulin 30 min
Experimental: as §2, §3
The total protein concentration in the cell lysate was determined with a Bradford protein assay and adjusted to a final concentration of 0.4 µg/µL with denaturing buffers (cat. no. PS-ST01EZ or PS-ST03EZ, ProteinSimple, Santa Clara, CA, USA) for size-based Western immunoassays. […]
Protein abundance was quantified using the Compass software from ProteinSimple (Santa Clara, CA, USA) and normalized with that of HSP70 for cIEF immunoassays or β-actin for capillary Western assays. […]

[9] = recombinant PP2A, 30 min, room temperature, read-out: IC50, PP2A inhibition

T1 sequence (P67775 1-308 limits assumed): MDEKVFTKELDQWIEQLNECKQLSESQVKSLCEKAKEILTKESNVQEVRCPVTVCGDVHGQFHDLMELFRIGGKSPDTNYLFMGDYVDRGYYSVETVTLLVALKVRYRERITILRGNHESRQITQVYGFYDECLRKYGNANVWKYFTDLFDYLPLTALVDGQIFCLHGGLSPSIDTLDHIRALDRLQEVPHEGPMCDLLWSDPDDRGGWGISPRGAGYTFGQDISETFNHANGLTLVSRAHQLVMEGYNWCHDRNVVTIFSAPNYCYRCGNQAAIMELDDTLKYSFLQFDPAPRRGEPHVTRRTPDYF

Compound | change of Akt2 cIEF electropherogram versus untreated control [2] | p-Akt2 (S474) induction [2] | IC50 [1, 9] [µM] | change of Akt2 cIEF electropherogram versus insulin alone [2] | increase of p-Akt2 (S474) compared to insulin treatment alone [2] | effect on Akt1 cIEF electropherogram [3] | effect on insulin-stimulated phosphorylation of Akt1 [3] | ERK1/2 phosphorylation [4] | abundance of p-Akt (S124) at pI 5.74 [5] | abundance of p-Akt (S246) at pI 5.74 [5] | abundance of p-Akt (Y475) at pI 5.74 [5] | effect on p-Akt (T308) [5] | p-Akt (T450) phosphorylation [5] | effect on Akt3 cIEF electropherogram [6] | effect on insulin-stimulated phosphorylation of Akt3 [6] | IC50 [7] [µM] | also measured
C=C1[C@@H](O)[C@@H]2O[C@]3(CC[C@H](/C=C/[C@@H](C)[C@@H]4CC(C)=C[C@@]5(O[C@H](C[C@@](C)(O)C(=O)O)CC[C@H]5O)O4)O3)CC[C@H]2O[C@@H]1[C@@H](O)C[C@H](C)[C@H]1O[C@@]2(CCCCO2)CC[C@H]1C [okadaic acid, reference compound] | induced the appearance of a new Akt2 isoform at pI 5.20 | Neither okadaic acid nor PTP1Bi treatment individually was capable of inducing | – | – | – | – | – | – | – | – | – | – | – | – | – | – | IC50 [1]: ~0.0005 µM
O=c1cc(N2CCOCC2)oc2c(-c3ccccc3)cccc12 [LY294002, reference compound] | – | – | – | – | – | – | – | – | – | – | – | – | – | – | – | – | effect on cinnamaldehyde or curcumin-induced phosphorylation of Akt2 ([2]; PI3K inhibitor with cinnamaldehyde or curcumin): unable to inhibit; effect on insulin-stimulated phosphorylation of Akt2 ([2]; PI3K inhibitor with insulin): abrogates
COc1cc(/C=C/C(=O)CC(=O)/C=C/c2ccc(O)c(OC)c2)ccc1O [curcumin] | new peak at pI 5.41 | Neither untreated control preadipocytes or preadipocytes treated with cinnamaldehyde or curcumin had a detectable level | ~20 | induced the appearance of a new Akt2 isoform at pI 5.15 | approximately 3.5 fold | neither cinnamaldehyde or curcumin had any observable effect | promote insulin-stimulated phosphorylation of Akt1 | increased ERK1/2 phosphorylation | increased the abundance | increased the abundance | increased the abundance | no observable effect | increased phosphorylation at the T450 residue | neither cinnamaldehyde or curcumin had any observable effect | no observable effect | ~25 | –
insulin [reference compound] | pI 5.20 and 5.30 | induced the appearance of p-Akt2 (S474) | – | – | – | no observable effect | – | – | – | – | – | – | – | induced the appearance of new Akt2 and Akt3 isoforms at low pI values | – | – | abundance of p-Akt (S473) [8]: increased the abundance; abundance of p-Akt (T308) [8]: increased the abundance; abundance of p-Akt (T450) [8]: increased the abundance
O=C/C=C/c1ccccc1 [cinnamaldehyde] | new peak at pI 5.41 | Neither untreated control preadipocytes or preadipocytes treated with cinnamaldehyde or curcumin had a detectable level | ~40 | induced the appearance of a new Akt2 isoform at pI 5.15 | approximately 3.5 fold | neither cinnamaldehyde or curcumin had any observable effect | promote insulin-stimulated phosphorylation of Akt1 | increased ERK1/2 phosphorylation | increased the abundance | increased the abundance | increased the abundance | no observable effect | increased phosphorylation at the T450 residue | neither cinnamaldehyde or curcumin had any observable effect | no observable effect | ~4 | –

— article PMC9416494, “Cinnamaldehyde and Curcumin Prime Akt2 for Insulin-Stimulated Activation” (Nutrients, 2022)
